Data set [1] has as its target T1, 5-hydroxytryptamine receptor 3A (Homo sapiens, UniProt P46098).
T1 sequence (P46098 whole entry): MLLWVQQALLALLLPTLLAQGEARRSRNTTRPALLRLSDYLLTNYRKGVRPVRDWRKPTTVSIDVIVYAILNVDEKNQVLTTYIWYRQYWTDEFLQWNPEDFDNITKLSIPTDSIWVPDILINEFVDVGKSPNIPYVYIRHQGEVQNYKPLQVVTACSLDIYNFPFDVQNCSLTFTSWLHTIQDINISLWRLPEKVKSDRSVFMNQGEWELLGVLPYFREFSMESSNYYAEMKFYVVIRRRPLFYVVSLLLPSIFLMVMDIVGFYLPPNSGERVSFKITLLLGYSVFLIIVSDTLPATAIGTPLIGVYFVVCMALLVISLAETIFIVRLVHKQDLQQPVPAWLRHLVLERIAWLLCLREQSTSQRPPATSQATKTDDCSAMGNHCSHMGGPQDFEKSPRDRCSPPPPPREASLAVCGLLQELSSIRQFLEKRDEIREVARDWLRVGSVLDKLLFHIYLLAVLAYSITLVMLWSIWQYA
Briefly: Antagonist activity at human 5HT3A expressed in HEK293 cells incubated for 1 hr by FLIPR assay. Type of data set: cell-based.

Data set [2] is filed under the species Homo sapiens. Briefly: Selectivity ratio of IC50 for human 5HT3A to IC50 for GCS (unknown origin).
Data set [3] concerns the target T2, Ceramide glucosyltransferase (Mus musculus, UniProt O88693).
T2 sequence (O88693 whole entry): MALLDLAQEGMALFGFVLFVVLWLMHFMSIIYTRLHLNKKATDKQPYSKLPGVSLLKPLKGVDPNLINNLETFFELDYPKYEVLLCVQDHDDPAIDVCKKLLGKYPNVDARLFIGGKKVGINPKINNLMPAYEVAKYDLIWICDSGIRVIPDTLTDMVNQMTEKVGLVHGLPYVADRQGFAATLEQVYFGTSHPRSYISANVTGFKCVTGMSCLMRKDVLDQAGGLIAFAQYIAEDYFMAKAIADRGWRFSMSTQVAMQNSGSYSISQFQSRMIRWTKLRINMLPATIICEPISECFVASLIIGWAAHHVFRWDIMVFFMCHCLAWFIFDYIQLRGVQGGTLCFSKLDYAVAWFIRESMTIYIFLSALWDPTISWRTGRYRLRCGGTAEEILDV
Briefly: Inhibition of GCS in mouse fibroblast. Type of data set: cell-based.

Data set [4] can be described thus: Unbound fraction in human plasma. Type of data set: ADME, cell-free.
Data set [5] concerns the target T3, Muscarinic acetylcholine receptor M5 (Homo sapiens, UniProt P08912).
T3 sequence (P08912 whole entry): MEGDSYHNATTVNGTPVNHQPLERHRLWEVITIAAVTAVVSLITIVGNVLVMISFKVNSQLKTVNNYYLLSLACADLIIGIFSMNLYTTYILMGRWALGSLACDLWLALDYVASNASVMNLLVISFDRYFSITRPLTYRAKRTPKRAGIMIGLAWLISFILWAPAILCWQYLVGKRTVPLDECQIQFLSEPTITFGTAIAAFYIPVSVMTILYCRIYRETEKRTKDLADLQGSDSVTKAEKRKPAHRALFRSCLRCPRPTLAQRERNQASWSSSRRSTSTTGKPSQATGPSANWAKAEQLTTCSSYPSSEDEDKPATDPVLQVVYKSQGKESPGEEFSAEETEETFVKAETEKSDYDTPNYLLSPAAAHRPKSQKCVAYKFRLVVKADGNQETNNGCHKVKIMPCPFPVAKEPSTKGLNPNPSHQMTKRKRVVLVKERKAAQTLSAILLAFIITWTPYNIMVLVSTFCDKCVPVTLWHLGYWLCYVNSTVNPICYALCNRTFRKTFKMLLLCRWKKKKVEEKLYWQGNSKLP
Briefly: Inhibition of human muscarinic M5 receptor.

A short description of data set [6]: Unbound volume of distribution at steady state in rat. Format: ADME. As to conditions: in vivo.
A short description of data set [7]: Protection against PFFs induced alpha-synuclein aggregation in human iPSC derived neurons assessed as reduction in phosphorylated S129 alpha-synuclein level at 1000 nM pretreated for 1 day followed by PFFs stimulation and measured after 14 days by immunocytochemistry analysis. Further details: scale not given: the % may be the effect or the level left. As to conditions: time 15 day. Format: functional, Neuron.

Data set [8] deals with Neuron. Briefly: Protection against PFFs induced lysosomal impairment in human iPSC derived neurons assessed as increase in lysosomal hydrolysis pretreated for 1 day followed by PFFs stimulation and measured after 14 days by immunocytochemistry analysis. Format: functional, cell-based. As to conditions: time 15.0 day.
Data set [9] has as its target T4, Ceramide glucosyltransferase (Homo sapiens) (UniProt Q16739).
T4 sequence (whole entry): T2 sequence (O88693 whole entry) with Q8L, L13V, V20L, S29A, A131G, S196Y, S251A
Briefly: (§1) Inhibition of GCS in human iPSC derived neurons assessed as reduction in […] GlcCer levels. As to conditions: Neuron. Type of data set: cell-based.

In data set [10] the target is T5, Ceramide glucosyltransferase (Homo sapiens, UniProt Q16739).
T5 sequence (Q16739 whole entry): T2 sequence (O88693 whole entry) with Q8L, L13V, V20L, S29A, A131G, S196Y, S251A
Described as §1. Format: cell-based, Neuron.

The nature of data set [11]: Protection against PFFs induced alpha-synuclein aggregation in human iPSC derived neurons assessed as reduction in phosphorylated S129 alpha-synuclein level pretreated for 1 day followed by PFFs stimulation and measured after 14 days by immunocytochemistry analysis. Format: functional, cell-based. As to conditions: Neuron.
In data set [12] the target is T6, Ceramide glucosyltransferase (Mus musculus) (UniProt O88693).
T6 sequence (whole entry): T2 sequence (O88693 whole entry)
Briefly: In vivo inhibition of GCS in C57 mouse assessed as reduction in brain GlcCer d18:1/18:0 concentration at 30 to 100 mg/kg, po measured after 8 hrs by LC-MS/MS method. Format: functional, organism-based. The conditions noted are these: dose 30-100 mg/kg.

The target of data set [13] is T6, Ceramide glucosyltransferase (Mus musculus). Briefly: (§2) In vivo inhibition of GCS in C57 mouse assessed as reduction in brain GlcCer d18:1/18:0 concentration measured after 8 hrs by LC-MS/MS method. Format: functional.
Data set [14] concerns the target T2, Ceramide glucosyltransferase. The data set is described as §2. Type of data set: functional.

Numbering of substitutions follows the chain as printed. The source made the active and inactive calls. The calls are words filed in the database; no cut-off is given here.

For orientation: IC50 means the midpoint of a concentration-inhibition curve. A word on the fraction unbound: it is free concentration divided by total concentration. With `Cl.O=C(N1CCN2CCC1CC2)n1nc(-n2cc(C(F)(F)F)cn2)c2c1COCC2`, the IC50 in [1] turned out to be 1970 nM; in data set [3], 17 nM; in data set [5], 10200 nM; in data set [10] it was 1.7 nM; in data set [11], 17 nM. Moreover, the Ratio IC50 in [2] amounted to 1100. The same compound registered a fraction unbound in data set [4] of 0.03. In [6], this compound displayed a fVdss of 16 L/kg. Moreover, the values for the Activity in data set [7] and in [8] were 20% and “Dose-Dependent Effect”, respectively. In addition, the inhibition entry in data set [9] was “Dose-Dependent Effect”.

The EC50 is the concentration giving half of the maximal effect. As to `O=C(N1CCN2CCC1CC2)n1nc(-c2ccc(F)cc2)c2c1COCC2`, the IC50 in data set [1] is 224 nM; in [3], 21 nM; in [5] it was 10200 nM. The Ratio IC50 in data set [2] was 64. Moreover, the free fraction (fraction unbound) in data set [4] was 0.03. In data set [6], the fVdss is 17 L/kg. In addition, the result in data set [12] was Active. For the same compound, the Activity entry in [13] is “Dose-Dependent Effect”. Besides, in data set [13], the fEC50 stood at 64 nM. In data set [14], the EC50 worked out at 320 nM.

The values are drawn from ChEMBL document CHEMBL5223177, “Pyrazole Ureas as Low Dose, CNS Penetrant Glucosylceramide Synthase Inhibitors for the Treatment of Parkinson's Disease” (ACS Med Chem Lett, 2023).
